The text below walks through data of US6713515B2, “Retinoic acid receptor antagonists as promoters of angiogenesis” (Bristol Myers Squibb Company, priority 2000, dated 2004).

Assay [1] addresses T1, RAR-α (Homo sapiens, UniProt P10276).
T1 sequence (P10276 1-462): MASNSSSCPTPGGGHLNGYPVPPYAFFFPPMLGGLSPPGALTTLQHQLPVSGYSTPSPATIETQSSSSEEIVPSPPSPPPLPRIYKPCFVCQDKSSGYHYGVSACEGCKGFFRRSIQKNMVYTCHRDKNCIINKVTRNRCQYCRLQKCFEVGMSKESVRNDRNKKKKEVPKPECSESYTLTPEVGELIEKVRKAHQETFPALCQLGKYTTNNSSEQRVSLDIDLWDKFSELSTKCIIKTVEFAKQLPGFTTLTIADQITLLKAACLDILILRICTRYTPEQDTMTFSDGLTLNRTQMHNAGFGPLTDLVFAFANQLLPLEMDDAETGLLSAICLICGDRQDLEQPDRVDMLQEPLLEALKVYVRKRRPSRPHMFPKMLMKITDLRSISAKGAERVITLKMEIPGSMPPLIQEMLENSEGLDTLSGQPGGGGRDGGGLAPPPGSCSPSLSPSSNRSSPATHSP
As to the kind of experiment: Receptor binding competition assay with radioactive t-RA. The settings on record: apparent Kd from competition with radioactive t-RA, recombinant RAR; read-out: Direct Binding RAR-α Kd.

Assay [2] deals with T2, RAR-β (Homo sapiens, UniProt P10826).
T2 sequence (P10826 1-455): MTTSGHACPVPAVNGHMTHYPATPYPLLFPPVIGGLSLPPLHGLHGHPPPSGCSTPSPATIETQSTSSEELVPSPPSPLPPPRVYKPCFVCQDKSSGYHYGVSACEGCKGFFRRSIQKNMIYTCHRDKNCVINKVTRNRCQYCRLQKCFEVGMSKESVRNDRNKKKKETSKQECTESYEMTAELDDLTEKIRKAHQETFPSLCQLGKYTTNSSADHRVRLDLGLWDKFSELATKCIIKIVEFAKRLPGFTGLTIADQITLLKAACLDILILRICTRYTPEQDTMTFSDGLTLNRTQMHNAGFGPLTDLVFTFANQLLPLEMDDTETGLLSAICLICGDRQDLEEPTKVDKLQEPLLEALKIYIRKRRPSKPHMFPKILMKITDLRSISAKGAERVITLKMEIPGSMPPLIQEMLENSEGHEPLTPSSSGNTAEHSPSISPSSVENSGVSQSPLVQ
Described as above. The settings on record: apparent Kd from competition with radioactive t-RA, recombinant RAR; read-out: Direct Binding RAR-β Kd.

Assay [3] has as its target T3, RAR-γ (Homo sapiens, UniProt P13631).
T3 sequence (P13631 1-454): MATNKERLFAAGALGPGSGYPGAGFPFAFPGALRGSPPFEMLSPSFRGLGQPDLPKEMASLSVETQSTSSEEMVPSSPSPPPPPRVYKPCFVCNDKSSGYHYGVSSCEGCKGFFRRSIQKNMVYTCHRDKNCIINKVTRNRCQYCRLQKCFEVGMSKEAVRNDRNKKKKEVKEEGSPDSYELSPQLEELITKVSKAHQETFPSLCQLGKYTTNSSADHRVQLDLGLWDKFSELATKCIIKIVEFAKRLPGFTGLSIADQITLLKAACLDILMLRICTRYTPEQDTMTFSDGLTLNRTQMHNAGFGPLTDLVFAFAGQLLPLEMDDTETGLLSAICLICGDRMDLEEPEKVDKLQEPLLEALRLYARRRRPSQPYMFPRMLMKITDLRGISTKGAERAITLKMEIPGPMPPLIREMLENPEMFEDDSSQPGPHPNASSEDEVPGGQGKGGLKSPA
The assay is described as above. Conditions: for Kd: apparent Kd from competition with radioactive t-RA, recombinant RAR, read-out: Direct Binding RAR-γ Kd.

For assay [4], the target named is T4, RAR-α (Homo sapiens, UniProt P10276). As to the kind of experiment: Receptor transactivation, GAL4-RAR chimeric receptor/CAT reporter in HeLa cells. In kind it is cell-based. Conditions: 24 hours.
T4 sequence (P10276 with tags, fused parts or gaps limits assumed, species assumed): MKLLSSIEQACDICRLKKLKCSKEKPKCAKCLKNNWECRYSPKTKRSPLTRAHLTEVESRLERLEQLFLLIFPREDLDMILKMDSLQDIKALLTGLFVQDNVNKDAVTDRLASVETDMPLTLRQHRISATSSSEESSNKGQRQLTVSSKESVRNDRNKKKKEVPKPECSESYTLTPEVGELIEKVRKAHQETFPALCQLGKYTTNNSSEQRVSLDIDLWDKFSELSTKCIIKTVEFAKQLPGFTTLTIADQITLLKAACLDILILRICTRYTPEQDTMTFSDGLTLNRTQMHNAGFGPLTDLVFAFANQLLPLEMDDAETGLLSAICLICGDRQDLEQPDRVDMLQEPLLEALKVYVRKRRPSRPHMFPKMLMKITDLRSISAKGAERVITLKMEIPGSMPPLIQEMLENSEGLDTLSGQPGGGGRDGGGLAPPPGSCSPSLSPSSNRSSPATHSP
For assay [5], the target named is T5, RAR-β (Homo sapiens, UniProt P10826). The assay is described as above. It is filed as cell-based.
T5 sequence (P10826 with tags, fused parts or gaps limits assumed, species assumed): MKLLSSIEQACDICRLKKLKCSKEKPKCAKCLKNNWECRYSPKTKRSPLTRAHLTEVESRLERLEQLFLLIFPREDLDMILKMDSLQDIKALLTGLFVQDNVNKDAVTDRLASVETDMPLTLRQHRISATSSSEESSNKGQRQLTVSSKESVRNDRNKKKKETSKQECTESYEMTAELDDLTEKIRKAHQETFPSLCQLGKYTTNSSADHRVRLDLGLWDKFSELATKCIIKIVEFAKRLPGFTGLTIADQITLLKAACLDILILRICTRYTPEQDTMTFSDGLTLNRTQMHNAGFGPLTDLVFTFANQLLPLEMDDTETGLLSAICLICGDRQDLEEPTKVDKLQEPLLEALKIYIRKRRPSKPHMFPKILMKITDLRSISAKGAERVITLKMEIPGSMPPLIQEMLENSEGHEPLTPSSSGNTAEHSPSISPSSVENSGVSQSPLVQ
Assay [6] deals with T6, RAR-γ (Homo sapiens, UniProt P13631). Described as above. In kind it is cell-based. The settings on record: 24 hours.
T6 sequence (P13631 with tags, fused parts or gaps limits assumed, species assumed): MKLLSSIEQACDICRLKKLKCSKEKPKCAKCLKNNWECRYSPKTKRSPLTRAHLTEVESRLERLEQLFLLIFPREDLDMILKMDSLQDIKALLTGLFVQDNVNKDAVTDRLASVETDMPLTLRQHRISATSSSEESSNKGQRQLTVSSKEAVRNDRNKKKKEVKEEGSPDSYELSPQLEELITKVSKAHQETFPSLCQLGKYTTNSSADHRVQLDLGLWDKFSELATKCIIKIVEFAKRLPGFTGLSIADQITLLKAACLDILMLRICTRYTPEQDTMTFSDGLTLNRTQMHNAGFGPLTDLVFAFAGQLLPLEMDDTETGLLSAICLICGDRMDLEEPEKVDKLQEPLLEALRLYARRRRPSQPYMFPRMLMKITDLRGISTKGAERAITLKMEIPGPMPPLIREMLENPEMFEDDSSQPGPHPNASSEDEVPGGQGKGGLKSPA
The target of assay [7] is T5, RAR-β. As to the kind of experiment: Transactivation competition assay (antagonist activity) in transfected HeLa cells. It is filed as cell-based. Conditions: for Competition RAR-β % MAX: inhibition of transactivation by 10^−7 M t-RA, 16 hours.
For assay [8], the target named is T4, RAR-α. Described as above. In kind it is cell-based. Conditions: for Competition RAR-α % MAX: inhibition of transactivation by 10^−7 M t-RA, 16 hours. The procedure:
(§1) Antagonist Activity Antagonist activity of the test retinoids was evaluated by a transactivation competition assay. Transfected HeLa cells were treated for 16 hours with 10^−7 M t-RA, with or without test retinoids, at concentrations of 10^−8 to 10^−5 M. The cells were then harvested and assayed for CAT activity. The antagonist activity was determined as an IC50 for the inhibition of transactivation produced by t-RA.

Assay [9] has as its target T6, RAR-γ. The assay is described as above. In kind it is cell-based. Conditions: for Competition RAR-γ % MAX: inhibition of transactivation by 10^−7 M t-RA, 16 hours. The procedure:
as §1

Another assay has as its system C57BL/KsJ mice. Nature of the assay: Skin flap model of angiogenesis. In kind it is in vivo. The procedure:
The skin flap model is a suitable in vivo approach to monitor the angiogenic response because it requires restoration of the disrupted blood vessel network that is impaired at the distal edge of the flap. A single application of vehicle (ethanol) or different concentrations of Compound 5 were performed. The results were monitored one and two weeks after the initiation of the experiment.
Sections were deparaffinized in xylene and rehydrated in a series of ethanol/water solutions. A 4% mouse non-immune serum in PBS was used for blocking. Monoclonal anti-PECAM-1 antibody (CD31, Sigma) was used at 1:100 dilution. FITC-conjugated anti-mouse IgG antibody (Sigma) was further applied to the sections at 1:200 dilution. Visualization was performed on an Olympus fluorescent microscope.
Female C57BL/KsJ mice were purchased from Jackson Labs (Bar Harbor, Me., USA) at the age of 6 weeks. Animals were acclimated for at least 2 weeks and housed 4 per cage with free access to water and food under 12 h light/dark cycle at a temperature of 23±2° C. and a humidity of 55±10%.
The mice were anesthetized by an IP injection of xyalazine/ketamine, the hair at the back clipped and the surface sterilized with 70% ethanol. A 3-way, full-thickness incision was introduced with the use of a scalpel, the skin flap separated from underlying tissues, the compound or vehicle applied, and the skin repositioned and sutured. Mice were housed individually after the procedure. The animals were sacrificed by CO2 inhalation and tissues were fixed in formalin, embedded in paraffin and evaluated histologically or immunocytochemically.

Entries after “also recorded” stand apart in the source; their conditions may differ.

Regarding `CC1(C)CC=C(C#Cc2ccccc2)c2cc(/C=C/c3ccc(C(=O)O)cc3)ccc21` [Compound 5, (E)-4-[[(5,6-dihydro-5,5-dimethyl-8-phenylethynyl)-2-naphthalenyl]ethenl]benzoic acid], the Kd worked out at 4.2 nM at RAR-α [1], 2.9 nM at RAR-β [2] and 98 nM on RAR-γ [3]. Besides, at RAR-γ [3] (comparison of Kd values), the “Binding to RARγ relative to Compound 4” value is “approximately two orders weaker”. Besides, the “Transactivation RAR-α % MAX” value at RAR-α [4] came to 0%. The “Transactivation RAR-β % MAX” value on RAR-β [5] (HeLa cells, 24 hours) is given as 0%. For the same molecule, the “Transactivation RAR-γ % MAX” value on RAR-γ [6] came to 0%. In addition, the IC50 on RAR-β [7] was found to be 300 nM; at RAR-α [8] it was 200 nM; at RAR-γ [9], 300 nM. In addition, the “Competition RAR-β % MAX” value at RAR-β [7] worked out at 100%. On RAR-α [8], the “Competition RAR-α % MAX” value was 100%. For the same molecule, at RAR-γ [9], the “Competition RAR-γ % MAX” value was found to be 100%. In the assay on C57BL/KsJ mice (0.01% and 0.1%, dose-dependent, FIG. 4), the “Amount of endothelial cells (anti-PECAM-1 staining)” value is listed as “increased amounts of endothelial cells; also recorded: higher amounts of endothelial cells”. Moreover, the “Number of blood vessels under the flap (histology, H&E)” value is “increase in the number of blood vessels” in the assay with C57BL/KsJ mice (lower dose group, FIG. 3 center panel); “increased angiogenesis; also recorded: significantly higher numbers of blood vessels” in the assay with C57BL/KsJ mice (single application, 0.01% and 0.1%, one and two weeks, vs ethanol vehicle, FIG. 3).

As for `CC1(C)CC=C(c2ccccc2)c2cc(/C=C/c3ccc(C(=O)O)cc3)ccc21` [Compound 4, (E)-4-[2-(5,6-dihydro-5,5-dimethyl-8-phenyl-2-naphthalenyl)ethenyl]benzoic acid], the Kd on RAR-α [1] amounted to 1 nM; at RAR-γ [3], 0.5 nM. Moreover, on RAR-α [4], the “Transactivation RAR-α % MAX” value worked out at 0%. Also, the “Transactivation RAR-β % MAX” value on RAR-β [5] (HeLa cells, 24 hours) came out at 20%. Moreover, on RAR-β [5] (reporter transactivation assays), the “RARβ transactivation (agonistic) activity, in words” value is listed as “weak RARβ transactivation activity; also recorded: weak RARβ agonistic activity”. Further, on RAR-γ [6], the “Transactivation RAR-γ % MAX” value worked out at 0%. Also, the “Competition RAR-β % MAX” value at RAR-β [7] amounted to 80%. Moreover, the concentration for half-maximal inhibition (IC50) on RAR-α [8] and on RAR-γ [9] was 200 nM in each case. The “Competition RAR-α % MAX” value at RAR-α [8] stood at 100%. For the same molecule, on RAR-γ [9], the “Competition RAR-γ % MAX” value is recorded as 100%.

For `COc1ccc(C2=CCC(C)(C)c3ccc(/C=C/c4ccc(C(=O)O)cc4)cc32)cc1` [Compound 7, (E)-4-[2-[5,6-dihydro-5,5-dimethyl-8-(4-methoxyphenyl)-2-naphthalenyl]ethenyl]benzoic acid], the Kd on RAR-α [1] was found to be 1.3 nM; at RAR-β [2] it was 6.1 nM; at RAR-γ [3], 2.6 nM. The “Transactivation RAR-α % MAX” value at RAR-α [4] is given as 0%. Moreover, the “Transactivation RAR-β % MAX” value at RAR-β [5] (HeLa cells, 24 hours) stood at 0%. On RAR-γ [6], the “Transactivation RAR-γ % MAX” value is on record as 0%. The results for the IC50 at RAR-β [7], at RAR-α [8] and on RAR-γ [9] were 1000 nM, 400 nM and 1000 nM, respectively. On RAR-β [7], the “Competition RAR-β % MAX” value came to 100%. Further, on RAR-α [8], the “Competition RAR-α % MAX” value is on record as 100%. The “Competition RAR-γ % MAX” value on RAR-γ [9] is on record as 100%.

`CC1=C(/C=C/C(C)=C/C=C/C(C)=C/C(=O)O)C(C)(C)CCC1` [All Trans RA, all trans retinoic acid, reference compound]: the “Transactivation RAR-α % MAX” value on RAR-α [4] was 100%. Moreover, the “Transactivation RAR-β % MAX” value on RAR-β [5] (HeLa cells, 24 hours) is 100%. In addition, at RAR-γ [6], the “Transactivation RAR-γ % MAX” value stood at 100%.

For the molecule `CC1(C)CC=C(c2ccccc2)c2cc(/C=C/c3ccc(C(=O)O)cc3Cl)ccc21` [Compound 8, (E)-3-chloro-4-[2-(5,6-dihydro-5,5-dimethyl-8-phenyl-2-naphthalenyl)ethenyl]benzoic acid], the Kd amounted to 200 nM at RAR-α [1], 2.8 nM on RAR-β [2] and 245 nM at RAR-γ [3]. At RAR-α [4], the “Transactivation RAR-α % MAX” value came to 0%. Also, the “Transactivation RAR-β % MAX” value on RAR-β [5] (HeLa cells, 24 hours) came out at 110%. At RAR-β [5] (HeLa cells, 24 hours, 50% of the effect of 10^−6 M t-RA), this molecule yielded an EC50 of 10 nM. Besides, the “Transactivation RAR-γ % MAX” value at RAR-γ [6] was 0%. Besides, the “Competition RAR-β % MAX” value at RAR-β [7] stood at 0%. For the same molecule, the IC50 on RAR-α [8] came to 3000 nM; at RAR-γ [9] it was 2000 nM. Also, the “Competition RAR-α % MAX” value at RAR-α [8] was 80%. At RAR-γ [9], the “Competition RAR-γ % MAX” value is 80%.

As for `CC1(C)CC=C(c2ccc3ccccc3c2)c2cc(/C=C/c3ccc(C(=O)O)cc3)ccc21` [Compound 6, (E)-4-[2-[5,6-dihydro-5,5-dimethyl-8-(2-naphthalenyl)-2-naphthalenyl]ethenyl]-benzoic acid], the Kd came out at 2 nM on RAR-α [1], 57 nM on RAR-β [2] and 24 nM on RAR-γ [3]. Also, the “Transactivation RAR-α % MAX” value at RAR-α [4] is 0%. On RAR-β [5] (HeLa cells, 24 hours), the “Transactivation RAR-β % MAX” value was 0%. Besides, the “Transactivation RAR-γ % MAX” value on RAR-γ [6] is given as 0%. Also, the IC50 on RAR-β [7] was 500 nM; at RAR-α [8] it was 300 nM; at RAR-γ [9], 900 nM. The “Competition RAR-β % MAX” value at RAR-β [7] came out at 100%. Besides, at RAR-α [8], the “Competition RAR-α % MAX” value worked out at 100%. In addition, on RAR-γ [9], the “Competition RAR-γ % MAX” value amounted to 100%.
